Data published in PMC6748986, “Potent modulation of the CepR quorum sensing receptor and virulence in a Burkholderia cepacia complex member using non-native lactone ligands” (Scientific Reports, 2019).

Legend:
[1] = molecular target: T1, CepR (Burkholderia cenocepacia, UniProt B4EMD0); assay: CepR antagonism in E. coli β-galactosidase reporter (Ec-reporter), competition against C8-AHL; type: cell-based, B. cenocepacia; conditions: for Inh% (100-Act%): Table S3, Ec-reporter; for CepR antagonism in words: Ec-reporter
T1 sequence (B4EMD0 1-239): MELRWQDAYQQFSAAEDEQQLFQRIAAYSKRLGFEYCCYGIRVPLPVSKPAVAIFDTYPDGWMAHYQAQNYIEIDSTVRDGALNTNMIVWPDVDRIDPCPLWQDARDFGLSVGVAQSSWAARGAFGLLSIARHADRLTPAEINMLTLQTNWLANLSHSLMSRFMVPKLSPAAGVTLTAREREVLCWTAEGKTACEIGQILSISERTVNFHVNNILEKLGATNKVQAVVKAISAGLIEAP
Text: (§1) We began our study by screening the AHL library for CepR modulators using an E. coli-based two plasmid reporter system (Ec-reporter)[38]–[40]. Certain members of the Bcc harbor additional QS systems that are either AHL-based (e.g., BviI/BviR in B. vietnamiensis)[41] or diffusible signal factor (DSF)-based (B. cenocepacia)[42], and at least one member of the Bcc has multiple receptors that respond to C8-AHL (e.g., CepR and CepR2 in B. cenocepacia)[43]. Thus, we reasoned that using a CepR reporter in a heterologous background could simplify our initial analyses. We modified our previously reported E. coli-based two plasmid β-galactosidase reporter system to develop a CepR Ec-reporter (see Methods). The first plasmid, pJN105-cepR, contains CepR from B. cenocepacia under the control of the L-arabinose inducible pBAD promoter. A second plasmid contains a transcriptional fusion of lacZ to the cepI promoter region. The two plasmids were co-transformed into a QS mutant E. coli strain (JLD271 ∆sdiA) that lacks its LuxR-type receptor, SdiA. Using this reporter system, if an exogenously -added compound is able to interact with CepR, this will affect the protein’s interaction with the cepI promoter region and alter β-galactosidase production. Enzyme production, and thereby CepR activity, is then measurable via the degradation of a colorimetric substrate for β-galactosidase. Using this new Ec-reporter, we observed robust activity of CepR in response to its native ligand C8-AHL, with an EC50 of 5 nM (Table 1).
To identify antagonists of CepR, we screened the AHL library (at 100 μM) in competition against the native ligand C8-AHL (at approximately twice its EC50 value, 0.01 μM) in the Ec-reporter. […] The active compounds were subjected to dose-response analyses in the Ec-reporter to obtain IC50 values and assess their relative potencies (Table 2; see Table S3 for complete screening data and Fig. S3 for dose-response curves). One general trend that we noted at the outset was the majority of the antagonists had acyl tails of similar or shorter overall length than CepR’s native ligand, C8-AHL. From this set, the strongest antagonists could be divided into two classes: (i) “short alkyl tail” AHLs or analogs thereof, and (ii) phenylacetanoyl HLs (PHLs). The discovery that the latter compounds were CepR antagonists was perhaps not surprising, as we have found substituted PHLs to strongly antagonize the majority of the LuxR-type receptors studied in our laboratory to date[22],[24],[29],[45],[46].
(§2) E. coli β-galactosidase reporter assays (derived from ref.[63]) and reagents used to obtain primary screening and dose-response data were performed as previously described[22],[60],[64], with the following modifications: E. coli JLD271 (∆sdiA) was co-transformed iteratively with pSC11-cepI and pJN105-cepR via electroporation. A single colony was used to start overnight cultures in LB medium + ampicillin (100 μg/mL) + gentamicin (15 μg/mL). A 1:10 dilution of overnight culture was grown in fresh medium to OD600 = 0.25. A sterile solution of L-arabinose in water (27 mM final concentration) was added to induce protein expression, after which cells were plated in 96-well plates containing varying concentrations of compound (200 μL total volume).
(§3) Cells were grown for 4 h, OD600 was read, 50 μL aliquots from each well were permeabilized in 200 μL Z Buffer, and then 150 μL of this mixture used to measure the cleavage of 25 μL of 4 mg/mL CPRG in phosphate buffered saline (PBS) at 37 °C until positive control wells developed a deep red color (~30 min). For all agonism assays, synthetic compound (100 μM) was screened alongside and compared to the native ligand, C8-AHL (100 μM). For all primary and dose-response antagonism assays, the concentration of native ligand utilized was 10 nM (approximately equal to twice its EC50 value). […] At least 3 separate trials were performed using unique cultures on separate days.

[2] = molecular target: T1, CepR; assay: CepR agonism in E. coli β-galactosidase reporter (Ec-reporter) JLD271 [pJN105-cepR + pSC11-cepI]; type: cell-based, B. cenocepacia; conditions: for Act%: Table S2, Ec-reporter
Text: as §1
We used the CepR Ec-reporter to perform a primary agonism screen at a single compound concentration (100 μM, or its solubility limit, indicated in Table S1). Thirty-one compounds displaying ≥70% agonistic activity in CepR (relative to C8-AHL) were identified and subjected to dose-response analyses using the Ec-reporter (Table I; see Table S2 for complete screening data and Fig. S3 for dose-response curves).
as §2, §3

[3] = screening conc. 100 μM, against 10 nM C8-AHL

## Cc1cccc(CC(=O)N[C@H]2CCOC2=O)c1 [Compound E1]
[1]; [3]
  Inh% (100-Act%): 11%
[2]; screening conc. 100 μM
  Act%: 16%

## O=C(CCc1ccco1)N[C@H]1CCOC1=O [Compound D2]
[1]; [3]
  Inh% (100-Act%): 0.0%
[2]; screening conc. 100 μM
  Act%: 70%

## O=C(N[C@H]1CCOC1=O)c1ccc(F)cc1 [Compound Q3]
[1]; [3]
  Inh% (100-Act%): 17%
[2]; screening conc. 100 μM
  Act%: 11%

## CCCCCCCCCC(=O)CC(=O)Nc1ccccc1 [3’O-C12-analine, reference compound]
[1]; [3]
  Inh% (100-Act%): 16%
[2]; screening conc. 100 μM
  Act%: 52%

## O=C(C=Cc1ccccc1)NC1CCOC1=O (centres unmarked) [Compound B10]
[1]; [3]
  Inh% (100-Act%): 11%
[2]; screening conc. 100 μM
  Act%: 60%

## O=C(Cc1ccc(F)cc1)N[C@H]1CCOC1=O [Compound C2]
[1]
  CepR antagonism in words: inactive as antagonists
[1]; [3]
  Inh% (100-Act%): 4.0%
[2]; screening conc. 100 μM
  Act%: 0.1%

## O=C(N[C@H]1CCOC1=O)c1ccc2c(c1)OCO2 [Compound Q11]
[1]; [3]
  Inh% (100-Act%): 5.0%
[2]; screening conc. 100 μM
  Act%: 6.9%

## O=C(Cc1c(F)c(F)c(F)c(F)c1F)N[C@H]1CCOC1=O [Compound C16]
[1]; [3]
  Inh% (100-Act%): -30%
[2]; screening conc. 100 μM
  Act%: 0.1%

## O=C(Cc1cc(C(F)(F)F)cc(C(F)(F)F)c1)N[C@H]1CCOC1=O [Compound E9]
[1]; [3]
  Inh% (100-Act%): 13%
[2]; screening conc. 100 μM
  Act%: 2.2%

## Cc1ccc(OCC(=O)N[C@H]2CCOC2=O)cc1 [Compound E15]
[1]; [3]
  Inh% (100-Act%): -30%
[2]; screening conc. 100 μM
  Act%: 65%

## CCCCCCCCCC(=O)CC(=O)NCCc1ccccc1 [Compound F50]
[1]; screening conc. 50 μM
  Inh% (100-Act%): 1.0%
[2]; screening conc. 50 μM
  Act%: 12%

## CC(C)(C)OC(=O)c1ccc(C(=O)N[C@H]2CCOC2=O)cc1 [Compound Q13]
[1]; [3]
  Inh% (100-Act%): 11%
[2]; screening conc. 100 μM
  Act%: 6.8%

## CCCCCCCCS(=O)(=O)N[C@H]1CCOC1=O [Compound A13]
[1]; [3]
  Inh% (100-Act%): 17%
[2]; Ec-reporter
  CepR agonism in words: failed to activate CepR
[2]; Ec-reporter, agonism dose-response
  EC50: 0.15 µM
[2]; Ec-reporter, activity for 100 μM C8-AHL set to 100%, error ±10%
  Maximal Activation (%): 110%
[2]; screening conc. 100 μM
  Act%: 108%

## O=C(Cc1cccc([N+](=O)[O-])c1)Nc1ccccc1 [Compound F25]
[1]
  CepR antagonism in words: dramatic losses in activity
[1]; [3]
  Inh% (100-Act%): 12%
[2]; screening conc. 100 μM
  Act%: 3.0%

## O=C(N[C@H]1CCOC1=O)c1ccc(Cl)cc1 [Compound Q4]
[1]; [3]
  Inh% (100-Act%): -20%
[2]; screening conc. 100 μM
  Act%: 49%

## Cc1ccc(CC(=O)N[C@H]2CCOC2=O)cc1 [Compound C19]
[1]; [3]
  Inh% (100-Act%): -20%
[2]; screening conc. 100 μM
  Act%: -1.6%

## O=C(Cc1ccc(Cl)cc1)N[C@H]1CCOC1=O [Compound C5]
[1]; [3]
  Inh% (100-Act%): 25%
[2]; screening conc. 100 μM
  Act%: 0.1%

## O=C(COc1ccccc1)N[C@H]1CCOC1=O [Compound E14]
[1]; [3]
  Inh% (100-Act%): -30%
[2]; screening conc. 100 μM
  Act%: 57%

## O=C(CCCC1CCCCC1)N[C@H]1CCOC1=O [Compound S6]
[1]; [3]
  Inh% (100-Act%): -10%
[2]; screening conc. 100 μM
  Act%: 90%

## CC(C)(C)OC(=O)Nc1ccc(CC(=O)N[C@H]2CCOC2=O)cc1 [Compound C22]
[1]; [3]
  Inh% (100-Act%): -70%
[2]; screening conc. 100 μM
  Act%: 1.1%

## Cc1ccc(C(=O)CCC(=O)N[C@H]2CCOC2=O)cc1 [Compound D6]
[1]; [3]
  Inh% (100-Act%): -50%
[2]; screening conc. 100 μM
  Act%: 61%

## O=C(Cc1ccc(Br)cc1)NC1CCSC1=O (centres unmarked) [Compound F10]
[1]
  CepR antagonism in words: dramatic losses in activity
[1]; [3]
  Inh% (100-Act%): 6.0%
[2]; screening conc. 100 μM
  Act%: 0.5%

## CCCC(=O)CC(=O)NC1CCSC1=O (centres unmarked) [3’O-C6-TL]
[1]; [3]
  Inh% (100-Act%): 4.0%
[2]; screening conc. 100 μM
  Act%: 1.6%

## O=C(Cc1ccc(-c2ccccc2)cc1)NC1CCCC1 [Compound F20]
[1]; [3]
  Inh% (100-Act%): -10%
[2]; screening conc. 100 μM
  Act%: 0.5%

## COc1cccc(CC(=O)N[C@H]2CCOC2=O)c1 [Compound E2]
[1]; [3]
  Inh% (100-Act%): -10%
[2]; screening conc. 100 μM
  Act%: 28%

## O=C(CCCc1c[nH]c2ccccc12)N[C@@H]1CCOC1=O [Compound B5]
[1]; [3]
  Inh% (100-Act%): -30%
[2]; screening conc. 100 μM
  Act%: 7.2%

## COc1ccc(CC(=O)NC2CCSC2=O)cc1 (centres unmarked) [Compound F12]
[1]; [3]
  Inh% (100-Act%): -20%
[2]; screening conc. 100 μM
  Act%: 2.4%

## O=C(COc1ccc(F)cc1)N[C@H]1CCOC1=O [Compound E19]
[1]; [3]
  Inh% (100-Act%): 22%
[2]; screening conc. 100 μM
  Act%: 42%
